The values that follow come from patent publication US12011447B2, “Pharmaceutical composition for treating thyroid cancer comprising tyrosine kinase activity inhibitor as active ingredient” (Kyungpook National University Industry-Academic Cooperation …, priority 2017, dated 2024).

Structures are written as SMILES.

In one assay the test system is 8505C cells. Description: In vitro 125I uptake assay. Particulars: anaplastic thyroid cancer cells. It counts as cell-based, human. Here is the method: 8505C cells (1.25×10^5) were seeded and incubated in a 24-well plate for 24 hours, and then treated with TKI-0266 and further incubated for 24 hours. Thereafter, the medium was removed, and the cells were washed with bHBSS (Hank's balanced salt solution containing 0.5% BSA). The cells were incubated with 500 μl of bHBSS, 3.7 kBq carrier-free ^125I (Perkin-Elmer), and 10 μmol/L sodium iodide (specific activity of 740 MBq/mmol) at 37° C. for 30 minutes. Thereafter, the cells were washed twice with cold bHBSS and lysed by adding 500 μL of 2% SDS solution thereto. Radioactivity was measured using a Cobra II gamma-counter (Canberra Packard, Canada). The ^125I uptake values were normalized by comparing the amount of total protein determined by BCA protein assay kit.

In assay [1] the test system is anaplastic thyroid cancer xenograft (8505C-PNIS-PCMV). The experiment in a line: Tumor growth inhibition in xenograft mice (tumor size, R-luc BLI). It counts as in vivo, Balb/c nude mice. The settings on record: single agent administration. As to the method:
Female Balb/c nude mice, 5.5-week old with an average weight of 18.9±0.37 g (mean±standard deviation [SD]), were purchased (Hamamatsu, Shizuoka, Japan). The mice were acclimated under specific pathogen-free conditions for one week before starting the experiment, and were maintained at a temperature of 20 to 25° C. and a relative humidity of 40 to 70%. To establish anaplastic thyroid cancer xenograft mouse models, 8505C-PNIS-PCMV s (5×10^6) were mixed with Matrigel (Corning) at a ratio of 1:1 and injected subcutaneously into the right flank region of each mouse.
In addition, in order to evaluate the effect of TKI-0266 administration on the treatment of thyroid cancer, mice for use in the experiment were divided into four groups (n=5): the vehicle group; the ^131I-administered group (injected intraperitoneally with 1 mCi Na-^131I on day 2 of the experiment; the TKI-0266-administered group (injected intraperitoneally with 50 mg/kg of TKI-0266 for 5 days); and the group co-administered with ^131I and TKI-0266 (injected intraperitoneally with 50 mg/kg of TKI-0266 for 5 days, and injected intravenously with 1 mCi Na-^131I on day 2; n=5). To measure the degree of tumor growth, h-coelenterazine (15 μg/ml) was administered to the mice by intravenous injection, and then the R-luc activity was monitored by BLI every 5 days.

Regarding `[K+].[O-][Cl+3]([O-])([O-])[O-]` [KCIO4, reference compound], in the assay on 8505C cells, the “iodine uptake on treatment with NIS inhibitor” value was “completely blocked”.
As to `[131I-].[Na+]` [^131I, Na-^131I, reference compound], in assay [1], the “tumor size on days 6 and 11” value is given as “continuous increase”.
